Measured values from ChEMBL document CHEMBL1201862, “PubChem BioAssay data set” (2004).
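Dose response: 5 concentrations. Exposure: 48 h. Format: 96-well plates. Endpoint: linear interpolation; highest concentration if not reached. The concentration for 50% growth inhibition is given as GI50.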 Calls of active or inactive are those of the source. Rule as the data show it: active = GI50 up to about 1.1 µM and inactive = higher.

What was measured:
Test in all cases: inhibition of tumour cell growth, NCI panel, 48 h
EKVX = tested on: EKVX
HOP-92 = tested on: HOP-92
SK-MEL-28 = tested on: SK-MEL-28
UACC-62 = tested on: UACC-62
SK-OV-3 = tested on: SK-OV-3
OVCAR-5 = tested on: OVCAR-5
Hs-578T = tested on: Hs-578T
NCI-H522 = tested on: NCI-H522
SN12C = tested on: SN12C
SK-MEL-2 = tested on: SK-MEL-2
HCT-15 = tested on: HCT-15
786-0 = tested on: 786-0
DU-145 = tested on: DU-145
A498 = tested on: A498
MDA-MB-435 = tested on: MDA-MB-435
UACC-257 = tested on: UACC-257
BT-549 = tested on: BT-549
U-251 = tested on: U-251
MOLT-4 = tested on: MOLT-4

SMILES	GI50 (EKVX)	GI50 (HOP-92)	GI50 (SK-MEL-28)	GI50 (UACC-62)	GI50 (SK-OV-3)	GI50 (OVCAR-5)	GI50 (Hs-578T)	GI50 (NCI-H522)	GI50 (SN12C)	GI50 (SK-MEL-2)	GI50 (HCT-15)	GI50 (786-0)	GI50 (DU-145)	GI50 (A498)	GI50 (MDA-MB-435)	GI50 (UACC-257)	GI50 (BT-549)	GI50 (U-251)	GI50 (MOLT-4)
CCOC(=O)c1cc(C)nc2c1c(=O)n(-c1ccccc1)c(=O)n2CCCCN1CCN(c2ccccc2)CC1	> 100 µM (inactive)	> 100 µM (inactive)	> 100 µM (inactive)	70.3 µM (inactive)	> 100 µM (inactive)	> 100 µM (inactive)	> 100 µM (inactive)	87.1 µM (inactive)	49.9 µM (inactive)	64.9 µM (inactive)	49.3 µM	73.1 µM (inactive)	> 100 µM (inactive)	27.6 µM (inactive)	> 100 µM (inactive)	27.8 µM (inactive)	> 100 µM (inactive)	> 100 µM (inactive)	24.5 µM (inactive)
Cc1cn([C@@H]2O[C@H](CO[Si](C)(C)C(C)(C)C)[C@]3(O[C@H]3C(=O)NO)[C@H]2O[Si](C)(C)C(C)(C)C)c(=O)[nH]c1=O	1.84 µM (inactive)	1.94 µM (inactive)	1.76 µM (inactive)	1.82 µM (inactive)	1.87 µM (inactive)	1.78 µM (inactive)	1.92 µM (inactive)	1.52 µM (inactive)	1.61 µM (inactive)	2.01 µM (inactive)	1.87 µM	1.54 µM (inactive)	1.89 µM (inactive)	1.9 µM (inactive)	2.07 µM (inactive)	2.59 µM (inactive)	1.66 µM (inactive)	1.7 µM (inactive)	1.73 µM (inactive)
CN(C)CCCN1c2ccccc2Sc2ccc3ccccc3c21	10.7 µM (inactive)	5.52 µM (inactive)	2.08 µM (inactive)	4.61 µM (inactive)	14.2 µM (inactive)	11.3 µM (inactive)	8.73 µM (inactive)	7.94 µM (inactive)	9.06 µM (inactive)	5.79 µM (inactive)	6.43 µM	11 µM (inactive)	12.8 µM (inactive)	5.71 µM (inactive)	3.1 µM (inactive)	1.84 µM (inactive)	13.1 µM (inactive)	7.23 µM (inactive)	2.92 µM (inactive)
O=C(O)c1c(CC(Cc2ccc3c(c2)CCCC3)C(=O)O)ccc2c1CCCC2 (stereo not given)	> 100 µM (inactive)	> 100 µM (inactive)	> 100 µM (inactive)	> 100 µM (inactive)	> 100 µM (inactive)	> 100 µM (inactive)	> 100 µM (inactive)	> 100 µM (inactive)	> 100 µM (inactive)	> 100 µM (inactive)	> 100 µM	> 100 µM (inactive)	> 100 µM (inactive)	> 100 µM (inactive)	> 100 µM (inactive)	> 100 µM (inactive)	> 100 µM (inactive)	> 100 µM (inactive)	> 100 µM (inactive)
CC(C)/C(Cl)=N/OC(=O)Nc1ccc(Cl)c(Cl)c1	2 µM (inactive)	1.72 µM (inactive)	2.01 µM (inactive)	13.6 µM (inactive)	17.1 µM (inactive)	16 µM (inactive)	23.7 µM (inactive)	1.58 µM (inactive)	1.91 µM (inactive)	18.4 µM (inactive)	2.33 µM	1.96 µM (inactive)	18.1 µM (inactive)	18 µM (inactive)	5.68 µM (inactive)	14.6 µM (inactive)	4.84 µM (inactive)	21.2 µM (inactive)	2.49 µM (inactive)
N#C[C@@H](c1nc2ccccc2s1)c1ncccc1[N+](=O)[O-]	5.89 µM (inactive)	1.32 µM (inactive)	> 10 µM (inactive)	3.21 µM (inactive)	16.6 µM (inactive)	11.9 µM (inactive)	5.55 µM (inactive)	2.51 µM (inactive)	4.82 µM (inactive)	4.12 µM (inactive)	7.13 µM	6.19 µM (inactive)	6.34 µM (inactive)	10.8 µM (inactive)	13.4 µM (inactive)	2.12 µM (inactive)	5 µM (inactive)	3.48 µM (inactive)	9.12 µM (inactive)
Cc1cc(C(=O)CSC(=S)SC(C)(C)C)ccc1Cl	24.5 µM (inactive)	24.8 µM (inactive)	19.8 µM (inactive)	16.1 µM (inactive)	34.1 µM (inactive)	21.9 µM (inactive)	25.5 µM (inactive)	14.7 µM (inactive)	18.2 µM (inactive)	19.9 µM (inactive)	22.3 µM	22.3 µM (inactive)	26.5 µM (inactive)	16.3 µM (inactive)	23.7 µM (inactive)	18.2 µM (inactive)	21.9 µM (inactive)	15.1 µM (inactive)	13.8 µM (inactive)
COc1ccc(C(OCC2OC(n3cc(C)c(=O)[nH]c3=O)CC2n2cc(Cn3cc(Br)c(=O)[nH]c3=O)nn2)(c2ccccc2)c2ccccc2)cc1 (stereo not given)	> 100 µM (inactive)	> 100 µM (inactive)	> 100 µM (inactive)	> 100 µM (inactive)	> 100 µM (inactive)	> 100 µM (inactive)	> 100 µM (inactive)	> 100 µM (inactive)	> 100 µM (inactive)	> 100 µM (inactive)	> 100 µM	> 100 µM (inactive)	> 100 µM (inactive)	> 100 µM (inactive)	6.55 µM (inactive)	> 100 µM (inactive)	> 100 µM (inactive)	66.5 µM (inactive)	4.36 µM (inactive)
COc1cc(/C=C(\C)[N+](=O)[O-])cc(OC)c1	19.2 µM (inactive)	13.5 µM (inactive)	18.4 µM (inactive)	14.6 µM (inactive)	> 100 µM (inactive)	20.1 µM (inactive)	26.9 µM (inactive)	1.87 µM (inactive)	17.1 µM (inactive)	17.2 µM (inactive)	12.6 µM	4.59 µM (inactive)	18.7 µM (inactive)	8.05 µM (inactive)	14.9 µM (inactive)	15.5 µM (inactive)	19.2 µM (inactive)	17.7 µM (inactive)	2.57 µM (inactive)
NCCCCNCCCN1CC1	3.15 µM (inactive)	0.279 µM (active)	1.72 µM (inactive)	5.18 µM (inactive)	0.977 µM (active)	5.27 µM (inactive)	0.433 µM (active)	2.47 µM (inactive)	1.19 µM (inactive)	0.752 µM (active)	4.91 µM	0.359 µM (active)	1.77 µM (inactive)	0.319 µM (active)	1.15 µM (inactive)	5.06 µM (inactive)	1.06 µM (active)	1.3 µM (inactive)	1 µM (active)
CSc1ncnc2c1cnn2Cc1cn(CCCCO)nn1	> 100 µM (inactive)	> 100 µM (inactive)	> 100 µM (inactive)	> 100 µM (inactive)	> 100 µM (inactive)	> 100 µM (inactive)	71.1 µM (inactive)	> 100 µM (inactive)	> 100 µM (inactive)	> 100 µM (inactive)	> 100 µM	> 100 µM (inactive)	> 100 µM (inactive)	> 100 µM (inactive)	> 100 µM (inactive)	> 100 µM (inactive)	> 100 µM (inactive)	> 100 µM (inactive)	> 100 µM (inactive)
Cc1[nH]c2ncn3ncnc3c2c1Cc1ccccc1	> 100 µM (inactive)	54.1 µM (inactive)	> 100 µM (inactive)	> 100 µM (inactive)	> 100 µM (inactive)	> 100 µM (inactive)	> 100 µM (inactive)	> 100 µM (inactive)	> 100 µM (inactive)	> 100 µM (inactive)	> 100 µM	> 100 µM (inactive)	> 100 µM (inactive)	> 100 µM (inactive)	> 100 µM (inactive)	> 100 µM (inactive)	> 100 µM (inactive)	> 100 µM (inactive)	> 100 µM (inactive)
CC1=CC(=O)[C@@H](O)[C@]2(C)[C@H]3[C@@]4(O)OC[C@@]35[C@@H](C[C@@H]12)OC(=O)C(OC(=O)CC1=CCCC1)[C@H]5[C@@H](C)[C@H]4O (stereo not given in full)	0.224 µM (active)	0.0548 µM (active)	0.0204 µM (active)	0.0383 µM (active)	0.551 µM (active)	0.105 µM (active)	0.0272 µM (active)	0.0178 µM (active)	0.0481 µM (active)	0.0547 µM (active)	0.0593 µM	0.0465 µM (active)	0.0665 µM (active)	0.429 µM (active)	0.0404 µM (active)	0.022 µM (active)	0.0409 µM (active)	0.0158 µM (active)	< 0.0145 µM (active)
c1ccc(-c2sc(-c3ccccc3)c3c2C2CCC3C2)cc1	42.1 µM (inactive)	12.6 µM (inactive)	49 µM (inactive)	33.8 µM (inactive)	64 µM (inactive)	53.8 µM (inactive)	20 µM (inactive)	23.1 µM (inactive)	45.3 µM (inactive)	19.2 µM (inactive)	31.6 µM	45.9 µM (inactive)	> 100 µM (inactive)	53.3 µM (inactive)	38.6 µM (inactive)	40.3 µM (inactive)	40.7 µM (inactive)	38.2 µM (inactive)	52.4 µM (inactive)
CC(C)(CO)NC1=C(Cl)C(=O)c2c(O)ccc(O)c2C1=O	1.87 µM (inactive)	1.85 µM (inactive)	1.89 µM (inactive)	1.35 µM (inactive)	1.57 µM (inactive)	1.65 µM (inactive)	0.743 µM (active)	0.316 µM (active)	1.56 µM (inactive)	2.32 µM (inactive)	0.557 µM	1.46 µM (inactive)	1.9 µM (inactive)	1.84 µM (inactive)	1.15 µM (inactive)	1.71 µM (inactive)	0.942 µM (active)	1.73 µM (inactive)	0.568 µM (active)
